Reference: patent US20100279863A1, “HERBICIDAL COMPOUNDS BASED ON N-AZINYL-N'-PYRIDYLSULFONYLUREAS” (Bayer CropScience AG, priority 2009, published 2010)

Experiments:
Format in all cases: in vivo
[1] = test system: Green bristlegrass (Setaria viridis); test: Pre-emergence herbicidal activity, SETVI; details: 80 g/ha, scored visually after approximately 3 weeks, 100% = plants have died
Source text: (§1) Seeds of monocotyledonous or dicotyledonous weed plants or crop plants are placed in sandy loam in wood fiber pots and covered with soil. The compounds according to the invention, which are formulated as wettable powders (WP) are then applied to the surface of the soil cover in the form of an aqueous suspension or emulsion with a water application rate of 600 I/ha (converted), with addition of 0.2% wetter. After the treatment, the pots are placed in the greenhouse and maintained under good growth conditions for the test plants. After approximately 3 weeks, the activity of the preparation is scored visually in comparison with untreated controls (herbicidal activity in percent (%): 100% activity=plants have died, 0% activity=like control plants). In the table, the individual crops are abbreviated as follows: • ALOMY: Slender meadow foxtail (Alopecurus myosuroides) • AMARE: Redroot pigweed (Amaranthus retroflexus) • CHEAL: Lambs quarters (Chenopodium album) • DIGSA: Hairy crab grass (Digitaria sanguinalis) • ECHCG: Barnyard grass (Echinochloa crus-galls) • LOLMU: Italian rye grass (Lolium multiflorum) • MATIN: Scentless camomile (Matricaria inodora) • PHBPU: Purple morning glory (Pharbitis/Ipomoea purpurea) • SETVI: Green bristlegrass (Setaria viridis) • SINAL: White mustard (Sinapis alba) • STEME: Chickweed (Stellaria media) • VIOTR: Wild pansy (Viola tricolor)

[2] = test system: White mustard (Sinapis alba); test: Pre-emergence herbicidal activity, SINAL; details: 80 g/ha, scored visually after approximately 3 weeks, 100% = plants have died
Source text: as §1

[3] = test system: Redroot pigweed (Amaranthus retroflexus); test: Pre-emergence herbicidal activity, AMARE; details: 80 g/ha, scored visually after approximately 3 weeks, 100% = plants have died
Source text: as §1

[4] = test system: Hairy crab grass (Digitaria sanguinalis); test: Pre-emergence herbicidal activity, DIGSA; details: 80 g/ha, scored visually after approximately 3 weeks, 100% = plants have died
Source text: as §1

[5] = test system: Purple morning glory (Pharbitis/Ipomoea purpurea); test: Post-emergence herbicidal activity, PHBPU; details: one-leaf stage, 80 g/ha, scored visually after approximately 3 weeks, 100% = plants have died
Description: (§2) Seeds of monocotyledonous or dicotyledonous weed plants or crop plants are placed in sandy loam in wood fiber pots, covered with soil and grown in the greenhouse under good growth conditions. 2 to 3 weeks after sowing, the test plants are treated in the one-leaf stage. The compounds according to the invention, which are formulated as wettable powders (WP), are then sprayed onto the green plant parts in the form of an aqueous suspension or emulsion with a water application rate of 600 l/ha (converted) with addition of 0.2% of wetter. After the test plants have been left to stand in the greenhouse for approximately 3 weeks under optimal growth conditions, the activity of the preparation is scored visually in comparison with untreated controls (herbicidal activity in percent (%): 100% activity=plants have died, 0% activity=like control plants). In the table, the individual crops are abbreviated as follows: • ABUTH: Velvetleaf (Abutilon theophrasti) • ALOMY: Slender meadow foxtail (Alopecurus myosuroides) • AMARE: Redroot pigweed (Amaranthus retroflexus) • CHEAL: Lambs quarters (Chenopodium album) • ECHCG: Barnyard grass (Echinochloa crus-galls) • LOLMU: Italian rye grass (Lolium multiflorum) • MATIN: Scentless camomile (Matricaria inodora) • PHBPU: Purple morning glory (Pharbitis/Ipomoea purpurea) • POLCO: Black bindweed (Polygonum convolvulus) • SETVI: Green bristlegrass (Setaria viridis) • STEME: Chickweed (Stellaria media) • VIOTR: Wild pansy (Viola tricolor) • XANST: Rough cocklebear (Xanthium strumarium)

[6] = test system: Wild pansy (Viola tricolor); test: Pre-emergence herbicidal activity, VIOTR; details: 80 g/ha, scored visually after approximately 3 weeks, 100% = plants have died
Source text: as §1

[7] = test system: Barnyard grass (Echinochloa crus-galls); test: Post-emergence herbicidal activity, ECHCG; details: one-leaf stage, 80 g/ha, scored visually after approximately 3 weeks, 100% = plants have died
Description: as §2

[8] = test system: Wild pansy (Viola tricolor); test: Post-emergence herbicidal activity, VIOTR; details: one-leaf stage, 80 g/ha, scored visually after approximately 3 weeks, 100% = plants have died
Description: as §2

[9] = test system: Rough cocklebear (Xanthium strumarium); test: Post-emergence herbicidal activity, XANST; details: one-leaf stage, 80 g/ha, scored visually after approximately 3 weeks, 100% = plants have died
Description: as §2

[10] = test system: Purple morning glory (Pharbitis/Ipomoea purpurea); test: Pre-emergence herbicidal activity, PHBPU; details: 80 g/ha, scored visually after approximately 3 weeks, 100% = plants have died
Source text: as §1

[11] = test system: Scentless camomile (Matricaria inodora); test: Post-emergence herbicidal activity, MATIN; details: one-leaf stage, 80 g/ha, scored visually after approximately 3 weeks, 100% = plants have died
Description: as §2

[12] = test system: Lambs quarters (Chenopodium album); test: Pre-emergence herbicidal activity, CHEAL; details: 80 g/ha, scored visually after approximately 3 weeks, 100% = plants have died
Source text: as §1

[13] = test system: Chickweed (Stellaria media); test: Pre-emergence herbicidal activity, STEME; details: 80 g/ha, scored visually after approximately 3 weeks, 100% = plants have died
Source text: as §1

[14] = test system: Scentless camomile (Matricaria inodora); test: Pre-emergence herbicidal activity, MATIN; details: 80 g/ha, scored visually after approximately 3 weeks, 100% = plants have died
Source text: as §1

[15] = test system: Lambs quarters (Chenopodium album); test: Post-emergence herbicidal activity, CHEAL; details: one-leaf stage, 80 g/ha, scored visually after approximately 3 weeks, 100% = plants have died
Description: as §2

[16] = test system: Slender meadow foxtail (Alopecurus myosuroides); test: Pre-emergence herbicidal activity, ALOMY; details: 80 g/ha, scored visually after approximately 3 weeks, 100% = plants have died
Source text: as §1

[17] = test system: Barnyard grass (Echinochloa crus-galls); test: Pre-emergence herbicidal activity, ECHCG; details: 80 g/ha, scored visually after approximately 3 weeks, 100% = plants have died
Source text: as §1

[18] = test system: Slender meadow foxtail (Alopecurus myosuroides); test: Post-emergence herbicidal activity, ALOMY; details: one-leaf stage, 80 g/ha, scored visually after approximately 3 weeks, 100% = plants have died
Description: as §2

[19] = test system: Italian rye grass (Lolium multiflorum); test: Pre-emergence herbicidal activity, LOLMU; details: 80 g/ha, scored visually after approximately 3 weeks, 100% = plants have died
Source text: as §1

[20] = test system: Italian rye grass (Lolium multiflorum); test: Post-emergence herbicidal activity, LOLMU; details: one-leaf stage, 80 g/ha, scored visually after approximately 3 weeks, 100% = plants have died
Description: as §2

[21] = test system: Velvetleaf (Abutilon theophrasti); test: Post-emergence herbicidal activity, ABUTH; details: one-leaf stage, 80 g/ha, scored visually after approximately 3 weeks, 100% = plants have died
Description: as §2

[22] = test system: Green bristlegrass (Setaria viridis); test: Post-emergence herbicidal activity, SETVI; details: one-leaf stage, 80 g/ha, scored visually after approximately 3 weeks, 100% = plants have died
Description: as §2

[23] = test system: Redroot pigweed (Amaranthus retroflexus); test: Post-emergence herbicidal activity, AMARE; details: one-leaf stage, 80 g/ha, scored visually after approximately 3 weeks, 100% = plants have died
Description: as §2

[24] = test system: Black bindweed (Polygonum convolvulus); test: Post-emergence herbicidal activity, POLCO; details: one-leaf stage, 80 g/ha, scored visually after approximately 3 weeks, 100% = plants have died
Description: as §2

[25] = test system: Chickweed (Stellaria media); test: Post-emergence herbicidal activity, STEME; details: one-leaf stage, 80 g/ha, scored visually after approximately 3 weeks, 100% = plants have died
Description: as §2

Row | Structure (SMILES) | herbicidal activity in percent, SETVI [1] [%] | herbicidal activity in percent, AMARE [3] [%] | herbicidal activity in percent, PHBPU [5] [%] | herbicidal activity in percent, VIOTR [6] [%] | herbicidal activity in percent, ECHCG [7] [%] | herbicidal activity in percent, VIOTR [8] [%] | herbicidal activity in percent, XANST [9] [%] | herbicidal activity in percent, MATIN [11] [%] | herbicidal activity in percent, STEME [13] [%] | herbicidal activity in percent, CHEAL [15] [%] | herbicidal activity in percent, ALOMY [16] [%] | herbicidal activity in percent, ECHCG [17] [%] | herbicidal activity in percent, ALOMY [18] [%] | herbicidal activity in percent, LOLMU [19] [%] | herbicidal activity in percent, LOLMU [20] [%] | herbicidal activity in percent, ABUTH [21] [%] | herbicidal activity in percent, SETVI [22] [%] | herbicidal activity in percent, AMARE [23] [%] | herbicidal activity in percent, POLCO [24] [%] | herbicidal activity in percent, STEME [25] [%] | also measured
1 | COc1cc(OC)nc(NC(=O)NS(=O)(=O)c2cnccc2C2=NOCCO2)n1 [Ia-2, 4-(5,6-Dihydro-1,4,2-dioxazin-3-yl)-N-[(4,6-dimethoxypyrimidin-2-yl)carbamoyl]pyridine-3-sulfonamide] | 100 | 90 | 90 | 90 | 90 | 90 | 100 | 90 | 90 | 80 | 90 | 90 | 90 | 90 | 95 | 90 | 95 | 100 | 90 | 95 | herbicidal activity in percent, SINAL [2]: 100%; herbicidal activity in percent, DIGSA [4]: 80%; herbicidal activity in percent, PHBPU [10]: 80%; herbicidal activity in percent, CHEAL [12]: 100%; herbicidal activity in percent, MATIN [14]: 90%
2 | Cc1cc(C)nc(NC(=O)NS(=O)(=O)c2cnccc2C2=NOCCO2)n1 [Ia-3] | 90 | 85 | 100 | 80 | 95 | 80 | 90 | 100 | 80 | 80 | 90 | 80 | 90 | 85 | 85 | 90 | 80 | 95 | 80 | 85 | herbicidal activity in percent, SINAL [2]: 90%; herbicidal activity in percent, PHBPU [10]: 90%; herbicidal activity in percent, CHEAL [12]: 90%; herbicidal activity in percent, MATIN [14]: 90%
3 | CN(C)c1nc(NC(=O)NS(=O)(=O)c2cnccc2C2=NOCCO2)nc(OCC(F)(F)F)n1 [Ia-8] |  |  |  |  | 80 |  |  |  |  |  |  |  |  |  | 80 |  |  | 80 |  | 80 | 
4 | COc1cc(C)nc(NC(=O)NS(=O)(=O)c2cnccc2C2=NOCCO2)n1 [Ia-9] | 90 | 90 | 100 | 90 | 90 | 90 | 100 | 100 | 90 | 90 | 90 | 80 | 90 | 90 | 90 | 90 | 80 | 100 | 90 | 90 | herbicidal activity in percent, DIGSA [4]: 90%; herbicidal activity in percent, PHBPU [10]: 90%; herbicidal activity in percent, CHEAL [12]: 90%; herbicidal activity in percent, MATIN [14]: 90%
5 | COc1cc(OC)nc(NC(=O)NS(=O)(=O)c2cccnc2C2=NOCCO2)n1 [Ic-1] | 85 | 90 | 90 | 80 | 90 | 90 | 90 | 90 | 90 | 80 | 90 | 90 | 80 | 85 | 85 | 80 | 85 | 95 | 90 | 90 | herbicidal activity in percent, SINAL [2]: 90%; herbicidal activity in percent, DIGSA [4]: 80%
